{"source": "BindingDB's records for PubMed 36966976", "about": "(Csir-Indian Institute of Chemical Technology (CSIR-IICT), 2023)", "molecular_target": "Alpha-synuclein (Homo sapiens, UniProt P37840)", "data": [{"molecule": "OCCOC(=C\\C=C1N(c2ccccc2)c2cc3ccccc3cc2N1c1ccccc1)/C=C/c1n(-c2ccccc2)c2cc3ccccc3cc2[n+]1-c1ccccc1", "values": [{"measurement": "Kd", "result": 3.8, "unit": "nM"}]}]}
